Earlier results on 2 compounds are cited in patent US7442682B2, “Transepithelial delivery of peptides with incretin hormone activities” (Nitto Denko Corporation, priority 2004, dated 2008).

For data set [1] the following is noted: in vivo.
A further data set has as its system fasting blood glucose. The following applies: type 2 diabetes patients, pump infusion for 6 weeks, mainly within first week.
For a further data set, the system named is β-cells. The following applies: insulinotropic effect; read-out: half-maximal effective concentration on β-cells.

In the case of `CCCCCCCCCCCCCCCC(=O)N[C@@H](CCC(=O)NCCCC[C@H](NC(=O)[C@H](C)NC(=O)[C@H](C)NC(=O)[C@H](CCC(N)=O)NC(=O)CNC(=O)[C@H](CCC(=O)O)NC(=O)[C@H](CC(C)C)NC(=O)[C@H](Cc1ccc(O)cc1)NC(=O)[C@H](CO)NC(=O)[C@H](CO)NC(=O)[C@@H](NC(=O)[C@H](CC(=O)O)NC(=O)[C@H](CO)NC(=O)[C@@H](NC(=O)[C@H](Cc1ccccc1)NC(=O)[C@@H](NC(=O)CNC(=O)[C@H](CCC(=O)O)NC(=O)[C@H](C)NC(=O)[C@@H](N)Cc1cnc[nH]1)[C@@H](C)O)[C@@H](C)O)C(C)C)C(=O)N[C@@H](CCC(=O)O)C(=O)N[C@@H](Cc1ccccc1)C(=O)N[C@H](C(=O)N[C@@H](C)C(=O)N[C@@H](Cc1c[nH]c2ccccc12)C(=O)N[C@@H](CC(C)C)C(=O)N[C@H](C(=O)N[C@@H](CCCNC(=N)N)C(=O)NCC(=O)N[C@@H](CCCNC(=N)N)C(=O)NCC(=O)O)C(C)C)[C@@H](C)CC)C(=O)O` [Liraglutide], the “half-life relative to exendin-4” value in data set [1] is “more than 10 fold”.

For “GLP-1: glucagon-like peptide-1, human incretin hormone”, the “lowering of fasting blood glucose” value in the data set with fasting blood glucose was 4 to 5 mM. For the same compound, the EC50 with β-cells was 0.01 nM.
